The first assay concerns IL-8. Description: Repression of endogenous IL-8 in A549s. The class given is cell-based, human. Particulars: A549 cells; compound G at 100 nM, p=0.0076. An excerpt:
The A549 cell line (ECACC:86012804) is derived from the human lung epithelial cells from a carcinoma. This cell line contains functional endogenous GR and is stimulated by Tumour Necrosis Factor (TNF) to produce IL-8.
In this assay TNF was used to stimulate NFkB activity in a cell line that expressed endogenous GR. The ability of NFkB to induce IL-8 gene transcription could then be repressed by GR in a ligand dependent manner and, therefore, used to measure transrepression.
COS7 cells were transfected with 3 μg NRE-Luc per 10 cm tissue culture dish. The cells were plated out in to 24 well plates after transfection and left for 18 hours to recover before the steroids of FIGS. 1 and 2A were added. After incubation for 3 hours with the steroids, TNF was added to the samples and after another 15 hours an IL-8 assay (R&D systems) was performed on the cell supernatants according to the manufacturers instructions. Briefly, triplicates of 100 μl of a 1:2 dilution of cell supernatant and 100 μl of a known dilution series of IL-8 were added to the wells of a microtitre plate coated with a monoclonal IL-8 antibody, the samples were incubated with a polyclonal biotinylated IL-8 antibody for 1 hour at room temperature and washed. Streptavidin horse radish peroxidase solution was then added to all wells and incubated for 30 mins before being washed. Tetramethyl benzidine (TMB; a chromagen) was added to all the wells and incubated in the dark for 10 mins, the reaction was stopped by the addition of H2SO4 and the absorbance of each well was read on a spectrophotometer using 450 nm as the primary wavelength. Regression analysis was performed on the standard data and the unknowns were expressed as pg/ml of IL-8 in comparison to the standards.
As for `CC1CC2C3CCC4=CC(=O)C=CC4(C)C3(F)C(O)CC2(C)C12OC(C)(C)OCC2=O` (stereo not drawn) [Compound A], the “repression of IL-8 production after TNF activation” value is recorded as “exhibited transrepression”. Turning to `CC1CC2C3CCC4=CC(=O)C=CC4(C)C3(F)C(O)CC2(C)C1(O)C(=O)COC(=O)c1ccc(F)cc1` (stereo not drawn) [Compound D], the “repression of IL-8 production after TNF activation” value is given as “exhibited transrepression”. Still for that read-out and setting: then `CCCNC(=O)C1(O)C(C)CC2C3CCC4=CC(=O)C=CC4(C)C3(F)C(O)CC21C` (stereo not drawn) [Compound G], with “repressed IL-8 production better than dexamethasone”.

A further assay deals with T1, progesterone receptor (PRB) (Homo sapiens, UniProt P06401).
T1 construct: expressed in transfected cells; host or cells: COS 7
T1 sequence (P06401 1-933): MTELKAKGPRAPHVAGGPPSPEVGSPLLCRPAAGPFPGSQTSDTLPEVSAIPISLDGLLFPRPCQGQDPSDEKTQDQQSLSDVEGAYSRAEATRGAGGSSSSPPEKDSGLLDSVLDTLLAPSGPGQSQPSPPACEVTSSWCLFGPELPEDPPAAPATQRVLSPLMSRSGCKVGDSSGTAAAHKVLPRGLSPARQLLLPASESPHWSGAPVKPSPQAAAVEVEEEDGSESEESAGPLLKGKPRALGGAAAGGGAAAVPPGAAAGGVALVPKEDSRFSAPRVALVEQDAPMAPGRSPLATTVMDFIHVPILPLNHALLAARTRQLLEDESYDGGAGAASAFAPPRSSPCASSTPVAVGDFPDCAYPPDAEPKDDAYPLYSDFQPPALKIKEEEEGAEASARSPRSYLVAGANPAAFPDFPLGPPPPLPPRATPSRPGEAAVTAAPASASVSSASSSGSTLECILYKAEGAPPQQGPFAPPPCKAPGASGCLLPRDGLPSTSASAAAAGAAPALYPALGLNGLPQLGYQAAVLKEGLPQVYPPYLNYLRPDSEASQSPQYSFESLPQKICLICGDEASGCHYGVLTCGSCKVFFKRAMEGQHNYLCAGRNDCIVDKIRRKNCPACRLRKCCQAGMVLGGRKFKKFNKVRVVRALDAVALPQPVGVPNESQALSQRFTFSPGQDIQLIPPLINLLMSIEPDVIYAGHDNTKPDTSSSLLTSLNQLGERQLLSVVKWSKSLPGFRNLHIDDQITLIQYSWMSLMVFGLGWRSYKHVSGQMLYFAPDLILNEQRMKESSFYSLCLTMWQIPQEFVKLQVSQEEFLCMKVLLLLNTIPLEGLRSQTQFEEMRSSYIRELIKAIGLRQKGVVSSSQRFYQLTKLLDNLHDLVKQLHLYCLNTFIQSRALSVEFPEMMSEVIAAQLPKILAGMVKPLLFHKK
Description: Progestogen activity assay using progesterone receptor transactivation. The format is cell-based. Particulars: 100 nM. An excerpt:
As the GR LBD has strong homology with the PR LBD there is a chance that any of the tested steroids of FIGS. 1 and 2A that activate one of these receptors may also activate the other. The presence of illegitimate progestogen activity associated with the steroids of FIGS. 1 and 2A was examined using a transactivation assay with the PR instead of the GR.
The PR was artificially expressed in a cell line lacking endogenous PR and a GRE “driving” a luciferase reporter gene was used to measure ligand dependent activation.
COS7 cells were transfected with 1 μg pSEO-PRB and 3 μg AH3-Luc per 10 cm tissue culture dish. The cells were plated out in to 24 well plates after transfection and the steroids of FIGS. 1 and 2A were added immediately to generate a final concentration of 100 nM. After 18 hour incubation the cells were lysed and a luciferase assay was performed.
Turning to `CC1CC2C3CCC4=CC(=O)C=CC4(C)C3(F)C(O)CC2(C)C1(O)C(=O)NCCCO` (stereo not drawn) [L], the “PRB activation relative to the activation generated by progesterone” value is roughly 40%.

The assay is the same for the next values; noted with them: 100 nM, AH3-luc reporter, COS7.
With `Cc1ccc(NC(=O)C2(O)C(C)CC3C4CCC5=CC(=O)C=CC5(C)C4(F)C(O)CC32C)cc1` (stereo not drawn) [Compound O], the “PRB reporter gene activation” value is given as “slightly increased reporter gene activation compared to that of dexamethasone”. As to `CCCCCCNC(=O)OCC(=O)C1(O)C(C)CC2C3CCC4=CC(=O)C=CC4(C)C3(F)C(O)CC21C` (stereo not drawn) [Compound T], the “PRB reporter gene activation” value is “slightly increased reporter gene activation compared to that of dexamethasone”.

Consider `CC1CC2C3CCC4=CC(=O)C=CC4(C)C3(F)C(O)CC2(C)C1(O)C(=O)NCCCO` (stereo not drawn) [L], for which the “PRB reporter gene activation” value was “slightly increased reporter gene activation compared to that of dexamethasone”.

On to `CC1CC2C3CCC4=CC(=O)C=CC4(C)C3(F)C(O)CC2(C)C1(O)C(=O)NCCC(=O)O` (stereo not drawn) [Q], for which the “PRB reporter gene activation” value is reported as “slightly increased reporter gene activation compared to that of dexamethasone”. Still for that read-out and setting: the result for `CCCOC(=O)C1(O)C(C)CC2C3CCC4=CC(=O)C=CC4(C)C3(F)C(O)CC21C` (stereo not drawn) [R] reads “slightly increased reporter gene activation compared to that of dexamethasone”.
